What was measured:
Type in all cases: in vivo
Conditions in all cases: Dosage 2000 g/ha
[1] = system: Setaria viridis; test: LTP post-emergence greenhouse test
[2] = system: Echinochloa colon; test: LTP post-emergence greenhouse test
[3] = system: Chenopodium album; test: LTP post-emergence greenhouse test
[4] = system: Alopecurus myosuroides; test: LTP post-emergence greenhouse test
[5] = system: Matricaria chamomilla; test: LTP post-emergence greenhouse test
[6] = system: Amaranthus tuberculatus; test: LTP post-emergence greenhouse test
Experimental: A basic panel of eight weed species (Table 3) sowed in 4×4×7 cm plastic pots containing a garden mix (klasmann). Each specie was sowed in a separate pot. In each pot, 10-15 seeds were sowed according to the specie viability. Timing of application determined at a 1-2 true leaf stage. The plants grew for 30 days in a controlled greenhouse (26±2° C. day, 20±2° C. night). Hood irrigation (tap water+Shefer 5:3:8 8 mM) was given at a 50% water content by weight. Two days before application, the tested plants thinned down to three plants per pot. Compounds were soluble in water (DDW), and commercial herbicide control was soluble in formulation B (Table 4). Before application, 1% (v/v) crop oil and 0.02% (v/v) surfactant (Tergitol™ 15-S-7) were added to the solution. […] Plants were evaluated at 3 time points (4, 8, 12 days after application (DAA)). At each time point, visual phenotyping was recorded using a scale of 0-6 (0: no visible effect, 6: maximum effect). […]
Post-emergence advanced wide panel experiment included 24 weed species (Table 5). […] Visual phenotyping was recorded at 4, 11, 17 and 20 DAA using a scale of 0-6 (0: no visible effect, 6: maximum effect). […] Statistical analysis for visual phenotyping determined by a median value of ≥3.5 and Fisher test (pval≤0.05). Statistical analysis for dry weight determined by % inhibition ≥50 and T test (pval≤0.05), as well as Wilcox test (pval≤0.05).

[7] = system: Galium aparine; test: LTP post-emergence greenhouse test
[8] = system: Poa annua; test: LTP pre-emergence greenhouse test
Experimental: (§1) A basic panel of 8 weed species (Table 3) were sowed in 4×4×7 cm plastic pots containing inert sand (Sweet sand), intensively washed using osmosis water. Each specie was sowed in a separate pot. In each pot 10-15 seeds were sowed according to the specie viability. Sowing was performed one day before application. The plants were grown for 21 days in a controlled greenhouse (26±2° C. day 20±2° C. night). Hood irrigation (tap water+Shefer 5:3:8 8 mM) was given at a 50% water content by weight. Compounds were soluble in water (DDW), and commercial herbicide control was soluble in formulation B (Table 4). Application was conducted with an industrial sprayer (TeeJet 6502E nozzle) at a rate of 2 kg/ha and spray volume of […]. Pre-emergence advanced dose response experiment application was conducted at six rates between 1-0.0312 kg/ha and spray volume of […]. Percentage of emergence was evaluated at 15 DAA. Visual phenotyping was recorded using a scale of 0-6 (0: no visible effect, 6: maximum effect) at 18 DAA. All experiments included an untreated control, a solvent control and a positive control (commercial herbicide A.I.). […] Statistical analysis for plant emergence determined by % emergence ≥50 and T test (pval≤0.05), as well as Wilcox test (pval≤0.05).

[9] = system: Amaranthus palmeri; test: LTP pre-emergence greenhouse test
Experimental: as §1

[10] = system: Arabidopsis thaliana; test: LTP pre-emergence greenhouse test
Experimental: as §1

[11] = system: Lolium multiflorum; test: LTP post-emergence greenhouse test
[12] = system: Poa annua; test: LTP post-emergence greenhouse test
[13] = system: Phalaris minor; test: LTP post-emergence greenhouse test
[14] = system: Stellaria media; test: LTP post-emergence greenhouse test
[15] = system: Arabidopsis thaliana; test: LTP post-emergence greenhouse test
[16] = system: Amaranthus palmeri; test: LTP post-emergence greenhouse test
[17] = system: Digitaria sanguinalis; test: LTP post-emergence greenhouse test
[18] = system: Ambrosia artemisiifolia; test: LTP post-emergence greenhouse test
[19] = system: Sinapis alba; test: LTP post-emergence greenhouse test

Structure (SMILES): C[C@@H](O)[C@@H](N)CCCCC(=O)O [Compound 104, (6S,7R)-6-amino-7-hydroxyoctanoic acid]
- Herbicidal activity (In-planta), LTP-Post emergence, Setaria viridis [1]: 90-95
- Herbicidal activity (In-planta), LTP-Post emergence, Echinochloa colon [2]: 95
- Herbicidal activity (In-planta), LTP-Post emergence, Chenopodium album [3]: 90
- Herbicidal activity (In-planta), LTP-Post emergence, Alopecurus myosuroides [4]: 95
- Herbicidal activity (In-planta), LTP-Post emergence, Matricaria chamomilla [5]: 70-80
- Herbicidal activity (In-planta), LTP-Post emergence, Amaranthus tuberculatus [6]: 80
- Herbicidal activity (In-planta), LTP-Post emergence, Galium aparine [7]: 70
- Herbicidal activity (In-planta), LTP-Pre emergence, Poa annua [8]: 100
- Herbicidal activity (In-planta), LTP-Pre emergence, Amaranthus palmeri [9]: 80
- Herbicidal activity (In-planta), LTP-Pre emergence, Arabidopsis thaliana [10]: 40-80
- Herbicidal activity (In-planta), LTP-Post emergence, Lolium multiflorum [11]: 80-90
- Herbicidal activity (In-planta), LTP-Post emergence, Poa annua [12]: 90
- Herbicidal activity (In-planta), LTP-Post emergence, Phalaris minor [13]: 20-30
- Herbicidal activity (In-planta), LTP-Post emergence, Stellaria media [14]: 95
- Herbicidal activity (In-planta), LTP-Post emergence, Arabidopsis thaliana [15]: 60
- Herbicidal activity (In-planta), LTP-Post emergence, Amaranthus palmeri [16]: 90
- Herbicidal activity (In-planta), LTP-Post emergence, Digitaria sanguinalis [17]: 95
- Herbicidal activity (In-planta), LTP-Post emergence, Ambrosia artemisiifolia [18]: 70-80
- Herbicidal activity (In-planta), LTP-Post emergence, Sinapis alba [19]: 60
